Among the data in PubChem BioAssay (NCI) are TGI values, retold here.

Common to all, as to experiment: growth of human tumour cells (NCI), 48 h
The subject of assay [1] is A549 NSCLC.
Assay [2] deals with PC-3 prostate.
For assay [3], the system named is HCT-15 colon.
For assay [4], the system named is CCRF-CEM leukemia.
The test system of assay [5] is T-47D breast.
Assay [6] relates to MCF7 breast.
In assay [7] the test system is SK-MEL-2 melanoma.
Assay [8] deals with IGROV1 ovarian.
For assay [9], the system named is NCI-H460 lung.
The test system of assay [10] is UACC-257 melanoma.
The test system of assay [11] is OVCAR-4 ovarian.
For assay [12], the system named is MDA-MB-231 breast.
The test system of assay [13] is DU-145 prostate.
Assay [14] deals with SK-MEL-28 melanoma.
Assay [15] has as its system NCI-H226 lung.
The subject of assay [16] is HOP-92 NSCLC.
For assay [17], the system named is OVCAR-3 ovarian.
The subject of assay [18] is A498 renal.
The subject of assay [19] is NCI-H522 lung.

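Assay format: 96-well plates, 48-hour exposure. TGI denotes the concentration required for complete inhibition of growth.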

For the compound `O=C1OCN(c2ccccc2)C12CCN(Cc1ccccc1)CC2`, the TGI was more than 100 µM in [1]; more than 100 µM in [2]; 94.6 µM in assay [3]; 48.7 µM in assay [4]; 63.8 µM in [5]; more than 100 µM in assay [6]. The TGI in [7] is 48.4 µM; in assay [8] it was more than 100 µM; in assay [9], 54.5 µM; in assay [10] it was 31 µM; in assay [11], more than 100 µM; in [12] it was 66.6 µM. The TGI was more than 100 µM in assay [13], 34 µM in assay [14], more than 100 µM in assay [15] and more than 100 µM in assay [16].
Regarding `CO[C@]1(c2ccc([N+](=O)[O-])cc2)Oc2ccccc2C(=O)[C@@]1(Nc1ccc(C=O)cc1)OC`, the TGI in [1], in [2], in assay [3], in assay [4], in assay [5] and in assay [6] was more than 10 µM each time. In addition, the TGI in assay [7], in assay [8], in assay [9], in [10], in assay [17] and in assay [18] was more than 10 µM throughout. Also, the TGI in assay [11], in assay [12], in assay [13], in assay [14] and in [15] was more than 10 µM throughout.
Consider `C/C(=C\CO)CC/C=C(\C)CNc1c(F)c(F)c(F)c(F)c1F`, for which the TGI was 94.8 µM in assay [1]; 58.5 µM in assay [2]; 85.4 µM in [3]; more than 100 µM in [4]; more than 100 µM in assay [5]; 70.1 µM in [6]. Also, the TGI was 48.6 µM in assay [7]; more than 100 µM in assay [8]; more than 100 µM in assay [9]; 47.4 µM in assay [10]; 52.8 µM in assay [17]; more than 100 µM in assay [11]. Further, the TGI in assay [19] is 46.3 µM; in [12], 40.5 µM; in [13] it was more than 100 µM; in assay [14] it was 41.1 µM; in assay [15] it was 75.1 µM.
Consider `Cn1c(=O)c2c3ccccc3n(C)c2n(C)c1=O`, for which the TGI in [1], in assay [3], in assay [4], in assay [5], in [6] and in assay [7] was more than 100 µM each time. The TGI in assay [8], in assay [10], in [17], in [18], in [11] and in [19] was more than 100 µM each time. Besides, the TGI in [12], in [13], in assay [15] and in [16] was more than 100 µM throughout.
As to `CCCN(CCC)CCc1ccc(OC2=CCN(C)CC2)cc1`, the TGI in assay [1], in assay [2], in assay [3], in assay [4], in assay [5] and in assay [6] was more than 100 µM each time. The TGI was more than 100 µM in [7]; more than 100 µM in assay [8]; 43.9 µM in assay [10]; more than 100 µM in assay [17]; more than 100 µM in assay [11]; 67 µM in assay [19]. The TGI is more than 100 µM in assay [12], more than 100 µM in assay [13], 91.7 µM in assay [14] and more than 100 µM in assay [15].
On to `C=C(C)[C@@H]1CCC2=C[C@@H](OC2=O)[C@@H](C(=C)C)C2=CC(C(=O)O)=C(C1)O2`, for which the TGI in [1], in [3], in [4], in assay [5], in assay [6] and in [7] was more than 100 µM throughout. The TGI in [8], in assay [10], in assay [17], in assay [18], in assay [11] and in [19] was more than 100 µM throughout. Besides, the TGI in [12], in assay [13], in assay [15] and in [16] was more than 100 µM throughout.
For the compound `Cc1c(-c2ccc(O)cc2)n(CCCCCCNCCOC(=O)NCCCc2ccc(N(CCCl)CCCl)cc2)c2ccc(O)cc12`, the TGI came out at 3.93 µM in [1]; 11.4 µM in assay [2]; 3.56 µM in assay [3]; 6.67 µM in assay [4]; 5.8 µM in assay [5]; 2.23 µM in [6]. Moreover, the TGI in assay [7] came out at 23.8 µM; in assay [8] it was 5.9 µM; in assay [9] it was 5.05 µM; in [10], 3.57 µM; in [17], 6.41 µM; in [18], 28.7 µM. Further, the TGI worked out at 4.44 µM in [11]; 3.44 µM in assay [19]; 3.38 µM in assay [12]; 3.97 µM in [13]; 13.8 µM in assay [14].
On to `c1ccc(C(C2=Nc3cccc4cccc(c34)N2)c2ccccc2)cc1`, for which the TGI in assay [1] is more than 100 µM; in assay [2], 87.3 µM; in [3], 93.6 µM; in [4], more than 100 µM; in [5], 37 µM; in assay [6], more than 100 µM. Besides, the TGI was 50 µM in assay [7]; more than 100 µM in [8]; 54.3 µM in [9]; 68 µM in assay [10]; 41.5 µM in assay [17]; more than 100 µM in assay [11]. For the same compound, the TGI was 36.3 µM in [19]; more than 100 µM in [12]; 91.3 µM in assay [13]; 52 µM in assay [14]; 84.7 µM in [15]; 44 µM in [16].
`C=CC[C@H]1O[Si](C(C)(C)C)(C(C)(C)C)[C@H](C)[C@H]1C`: the TGI in [1], in assay [2], in assay [3], in assay [4], in [5] and in [6] was more than 100 µM in each case. Moreover, the TGI in assay [7], in assay [8], in assay [10], in assay [17], in assay [18] and in [11] was more than 100 µM throughout. In addition, the TGI in assay [19], in [12], in assay [14], in assay [15] and in assay [16] was more than 100 µM each time.
In the case of `CN(Cc1cnc2nc(N)nc(N)c2n1)c1ccc(C(=O)NCCS(=O)(=O)O)cc1`, the TGI in assay [1], in [2], in assay [3], in assay [5], in assay [6] and in assay [7] was more than 100 µM each time. In addition, the TGI in assay [8], in [9], in assay [10], in [17], in assay [18] and in assay [11] was more than 100 µM throughout. Moreover, the TGI in [19], in [12], in assay [13], in [14] and in assay [15] was more than 100 µM throughout.
Turning to `CN(C)CCNc1ccc([N+](=O)[O-])c2sc3ccccc3c(=O)c12`, the TGI in assay [1] was 20.2 µM; in assay [2], 21.6 µM; in assay [3], 23.6 µM; in assay [4] it was more than 100 µM; in assay [5] it was more than 100 µM; in [6], 15.2 µM. Moreover, the TGI in [7] is 27.9 µM; in [8] it was 7.66 µM; in [9], 7.49 µM; in assay [10] it was 19.6 µM; in [17], 32.6 µM; in [11], 9.27 µM. Further, the TGI in assay [19] turned out to be 5.15 µM; in assay [12], 9.39 µM; in [13], 31.5 µM; in assay [14], 21.5 µM; in [15], 51.2 µM; in assay [16] it was 51.2 µM.
On to `C1=CC2(C=CC13O[C@H](C1CCCCC1)[C@@H](C1CCCCC1)O3)O[C@H](C1CCCCC1)[C@@H](C1CCCCC1)O2`, for which the TGI in assay [1], in [2], in assay [3], in assay [5], in assay [6] and in assay [7] was more than 50 µM each time. For the same compound, the TGI in [8], in [9], in assay [10], in assay [17], in assay [18] and in [11] was more than 50 µM each time. Besides, the TGI in [12], in assay [13], in [14] and in [15] was more than 50 µM each time.
Take `COC(=O)NC(Nc1ccccn1)(C(F)(F)F)C(F)(F)F`: the TGI in [1], in assay [3], in assay [4], in assay [5], in [6] and in assay [7] was more than 100 µM each time. The TGI in assay [8], in [9], in assay [10], in assay [17], in [18] and in [19] was more than 100 µM throughout. In addition, the TGI in assay [12], in [13], in assay [14], in assay [15] and in [16] was more than 100 µM each time.
On to `Cc1ccc(N=N/C(=N/NC(=O)c2cc(Cl)ccc2O)c2ccc(N(CCC#N)CCC#N)cc2C)cc1`, for which the TGI in assay [1] was more than 100 µM; in assay [2], more than 100 µM; in assay [3], more than 100 µM; in assay [4], more than 100 µM; in [5], 56.2 µM; in assay [6] it was more than 100 µM. Further, the TGI in assay [7] is 68.4 µM; in assay [8] it was more than 100 µM; in [9], 68.8 µM; in assay [10] it was 47.2 µM; in [17], 55.9 µM; in assay [18], 49.5 µM. For the same compound, the TGI in assay [11] was 97.7 µM; in assay [19], 31.4 µM; in assay [12], more than 100 µM; in assay [13], more than 100 µM; in [15] it was 63.7 µM.
Take `Cc1ccc(S(=O)(=O)NC(=O)NC(CC(N)=O)C(=O)O)cc1` (configuration not stated): the TGI in [1], in [2], in [3], in assay [4], in assay [5] and in assay [6] was more than 100 µM throughout. The TGI in [7], in assay [8], in [9], in [10], in assay [11] and in assay [19] was more than 100 µM each time. In addition, the TGI in [12], in assay [13], in assay [14] and in assay [16] was more than 100 µM in each case.
Regarding `S=C(N1CCN(c2ccc(Cl)c(Cl)c2)CC1)N1CCN(c2ccc(Cl)c(Cl)c2)CC1`, the TGI in [1] came to 37.9 µM; in assay [2], 28.2 µM; in assay [3] it was 28.8 µM; in assay [4] it was 9.44 µM; in assay [5] it was 23.3 µM; in assay [6], 24 µM. The TGI in [7] turned out to be 41.7 µM; in assay [8], 22.5 µM; in assay [10], 30.9 µM; in assay [17] it was 26.3 µM; in [11], 28.3 µM; in assay [19] it was 22.8 µM. Besides, the TGI in assay [12] was determined as 21.2 µM; in [13], 28.1 µM; in assay [14] it was 28.7 µM; in assay [15], 23.8 µM.
